Like-named read-outs stand apart in the source and are kept apart here.
Key:
[1] = in vivo; cited from earlier work
[2] = system: xenograft tumors; conditions: mice; cited from earlier work
[3] = system: Hedgehog signaling pathway; experiment: Hedgehog pathway repression, approximate IC50 from RT-PCR; assay type: cell-based, mouse; conditions: read-out: Approximate IC50 for pathway repression
Experimental: Another experiment was carried out to determine the dosage response of these phytoestrogen on Gli1 expression in the TRAMP-C2 cell line. […] The results of this experiment verifies a correlation between phytoestrogen treatment and Hedgehog activity (FIG. 6). […] These concentrations may be easily obtainable pharmacologically in humans.

[4] = system: TRAMP-C2 cells; experiment: Growth of TRAMP-C2 cell line (total cellular protein); assay type: cell-based, mouse
Experimental: (§1) It has been shown that phytoestrogens in common herbs regulate prostate cancer cell growth in vitro (Shenouda et al., 2004). In order to determine whether these phytoestrogens also regulate cells derived from the mouse model of prostate cancer, the TRAMP-C2 cell line was treated with the soy phytoestrogen genistein and growth inhibition IC50 doses were determined (FIG. 4). Effects of the phytoestrogens genistein and EGCG on expression of these Hedgehog-pathway components were also determined by quantitative RT-PCR. Cyclopamine was used as a control. […] GAPDH was used as an internal control.

[5] = system: Gli1; experiment: Gli1 mRNA expression by RT-PCR / real-time RT-PCR in TRAMP-C2 cells; assay type: cell-based, mouse; conditions: for suppression of Gli1 mRNA concentration compared with cyclopamine 30 μM: TRAMP-C2, time course 72 hrs, genistein 50 μM, EGCG 100 μM, FIG. 7A
Experimental: as §1
Another experiment was carried out to determine the dosage response of these phytoestrogen on Gli1 expression in the TRAMP-C2 cell line. Increasing amounts of genistein or EGCG were added to cell cultures of TRAMP-C2, and the levels of Gli1 mRNA was determined by real time RT-PCR. The results of this experiment verifies a correlation between phytoestrogen treatment and Hedgehog activity (FIG. 6).
In order to test whether the inhibitory effect of genistein on Gli1 transcription is through ERα or ERβ, experiments were conducted to determine whether 17β-estradiol (E2) works in the same manner as genistein (FIG. 7C).

[6] = system: Patched1; experiment: Patched1 mRNA levels by RT-PCR; assay type: cell-based, mouse
Experimental: as §1
(§2) Approximate IC50 values for pathway repression were determined as 30 μM for genistein, 20 μM for EGCG, and 5 μM for resveratrol. These concentrations may be easily obtainable pharmacologically in humans. […] Thus, Genistein, EGCG, and resveratrol may regulate prostate cancer via inhibition of the Hedgehog signaling pathway.

[7] = system: Gli1 protein in LNCaP cells; experiment: Gli1 protein concentration in LNCaP cells by Western blot; assay type: cell-based, human
Experimental: as §2

[8] = system: Hedgehog pathway activity in Shh Light II cells; experiment: Shh Light II Gli1-responsive luciferase reporter assay; assay type: cell-based; conditions: Shh Light II cells with sonic hedgehog protein, 24 hours, FIG. 7B
Experimental: The effects of various phytoestrogens on Hedgehog signaling in a non-tumor cell line Shh Light II were also assessed (FIG. 7B). Shh Light II cells were obtained from the ATCC. These cells, containing the Gli1 responsive promoter driving a luciferase reporter, are a standard tool used to assay Hedgehog pathway activity. Meloni et al., 2006. Cells were allowed to reach confluency in 24-well plates and subsequently treated with the selected phytoestrogens at the amount indicated on the figure, along with the stimulatory sonic hedgehog protein (obtained from R&D Systems). The cells were then grown for 24 hours in phenol red-free DMEM supplemented with 0.5% charcoal stripped fetal bovine serum. Cells were then lysed, and the luciferase and renilla activities of the cell lysates were measured.

[9] = system: poorly differentiated carcinoma in TRAMP mouse; conditions: TRAMP mouse model; cited from earlier work
[10] = system: estrogen receptor alpha (ERα) and beta (ERβ); conditions: cited from earlier work
[11] = system: prostate tumor in ERWT/TRAMP mice; experiment: Prostate tumorigenesis in ERWT/TRAMP mice fed genistein diet; assay type: in vivo, mouse
Experimental: (§3) The influence of estrogen on prostate cancer has been previously described in the Background section. In order to determine the effect of genistein on prostate tumor development in the TRAMP model, in the first experiment, groups of ˜30 male mice, either ERαKO/TRAMP, ERβKO/TRAMP or ERWT/TRAMP were fed diets containing 0 or 300 mg genistein/kg (See Table 1). Mice were fed the diets from weaning and were euthanized at 5 months of age. Prostates were dissected and prepared for histopathology. The tumor stage was assessed using ratings of normal (N), hyperplasia (HYP), prostatic intraepithelial neoplasia (PIN), well differentiated carcinoma (WDC), moderately differentiated carcinoma (MDC) or poorly differentiated carcinoma (PDC) See Wechter et al., 2000; also see http://thegreenberglab.fhcrc.org. To summarize the data, non-cancer was defined as N, HYP or PIN and cancer was defined as WDC, MDC or PDC (Table 1) The prostate tumor incidence was compared between mice fed with genistein diet and those fed with casein.

[12] = system: prostate tumor in ERβKO/TRAMP mice; experiment: Prostate tumorigenesis in ERβKO/TRAMP mice fed genistein diet; assay type: in vivo, mouse
Experimental: as §3

[13] = system: prostate tumor in ERαKO/TRAMP mice; experiment: Prostate tumorigenesis in ERαKO/TRAMP mice fed genistein diet; assay type: in vivo, mouse
Experimental: as §3

[14] = ERWT/TRAMP, 300 mg genistein/kg diet, 5 months of age
[15] = ERβKO/TRAMP, 300 mg genistein/kg diet, 5 months of age
[16] = ERαKO/TRAMP, 300 mg genistein/kg diet, 5 months of age

CC1=C2C[C@H]3[C@@H](CC=C4C[C@@H](O)CC[C@@]43C)[C@@H]2CC[C@]12O[C@@H]1C[C@H](C)CN[C@H]1[C@H]2C [cyclopamine]
birth defects in the progeny [1]: cause birth defects, most notably cyclopia | effect on xenograft tumors [2]: complete regression

O=C(O[C@@H]1Cc2c(O)cc(O)cc2O[C@@H]1c1cc(O)c(O)c(O)c1)c1cc(O)c(O)c(O)c1 [EGCG]
IC50 ([3]; RT-PCR): ~20 µM | proliferation of TRAMP-C2 cells [4]: inhibited | suppression of Gli1 mRNA concentration compared with cyclopamine 30 μM [5]: more pronounced | expression of Gli1, Gli2 and Gli3 ([5]; TRAMP-C2 cells): down-regulate | reduction of Patched1 mRNA levels [6]: 70% | Gli1 protein concentration [7]: significantly reduced

C[C@]12CC[C@@H]3c4ccc(O)cc4CC[C@H]3[C@@H]1CC[C@@H]2O [E2, 17β-estradiol, reference compound]
inhibition of Gli1 expression ([5]; TRAMP-C2 cells, 10 nM, 24 hours, FIG. 7C): Strong inhibition

COc1cc(/C=C/C(=O)CC(=O)/C=C/c2ccc(O)c(OC)c2)ccc1O [curcumin]
hedgehog activity (luciferase reporter activity) [8]: inhibit

Oc1ccc(C=Cc2cc(O)cc(O)c2)cc1 [resveratrol]
IC50 ([3]; Mus musculus, RT-PCR): ~5 µM | reduction of Gli1 mRNA ([5]; RT-PCR): 60% | reduction of Patched1 mRNA levels [6]: 50% | Gli1 protein concentration [7]: significantly reduced

O=c1c(-c2ccc(O)cc2)coc2cc(O)cc(O)c12 [genistein]
IC50 ([3]; Mus musculus): ~30 µM | effect on poorly differentiated carcinoma [9]: protective effect | proliferation of TRAMP-C2 cells [4]: inhibited | binding to ERα and ERβ [10]: bind both receptors with a higher affinity for ERβ | suppression of Gli1 mRNA concentration compared with cyclopamine 30 μM [5]: more pronounced | expression of Gli1, Gli2 and Gli3 ([5]; TRAMP-C2 cells): down-regulate | Gli1 expression compared to the untreated control ([5]; TRAMP-C2 cells, RT-PCR, FIG. 5, GAPDH internal control): down-regulates | effect of addition of genistein on inhibition of Gli1 expression by E2 ([5]; TRAMP-C2 cells, with 10 nM E2, FIG. 7C): did not enhance | reduction of Patched1 mRNA levels [6]: 70% | protective effect on prostate tumor incidence versus casein diet ([11]; ERWT/TRAMP mice, 300 mg genistein/kg diet from weaning to 5 months): significant protective effect | HYP (2), incidence [11, 14]: 28% | HYP (2), number of mice [11, 14]: 15 | MDC (5), incidence [11, 14]: 2% | MDC (5), number of mice [11, 14]: 1 | Normal (Stage1), number of mice [11, 14]: 0 | PDC (6), incidence [11, 14]: 24% | PDC (6), number of mice [11, 14]: 13 | PIN (3), incidence [11, 14]: 33% | PIN (3), number of mice [11, 14]: 18 | WDC (4), incidence [11, 14]: 13% | WDC (4), number of mice [11, 14]: 7 | Gli1 protein concentration [7]: significantly reduced | protective effect on prostate tumor incidence versus casein diet ([12]; ERβKO/TRAMP mice, 300 mg genistein/kg diet from weaning to 5 months): not | HYP (2), number of mice [12, 15]: 0 | MDC (5), number of mice [12, 15]: 0 | Normal (Stage1), number of mice [12, 15]: 0 | PDC (6), incidence [12, 15]: 48% | PDC (6), number of mice [12, 15]: 10 | PIN (3), incidence [12, 15]: 19% | PIN (3), number of mice [12, 15]: 4 | WDC (4), incidence [12, 15]: 33% | WDC (4), number of mice [12, 15]: 7 | hedgehog activity (luciferase reporter activity) [8]: inhibit | protective effect on prostate tumor incidence versus casein diet ([13]; ERαKO/TRAMP mice, 300 mg genistein/kg diet from weaning to 5 months): not | HYP (2), number of mice [13, 16]: 0 | MDC (5), incidence [13, 16]: 3.8% | MDC (5), number of mice [13, 16]: 1 | Normal (Stage1), incidence [13, 16]: 3.8% | Normal (Stage1), number of mice [13, 16]: 1 | PDC (6), number of mice [13, 16]: 0 | PIN (3), incidence [13, 16]: 3.8% | PIN (3), number of mice [13, 16]: 1 | WDC (4), incidence [13, 16]: 88.6% | WDC (4), number of mice [13, 16]: 23
